Reference: patent US10208033B2, “β-carboline, dihydro-β-carboline and tetrahydro-β-carboline alkaloid derivatives and preparation methods same and use in aspects of preventing and treating plant viruses, fungicides and insecticides” (NANKAI UNIVERSITY, priority 2013, dated 2019)
Counter-ions that a name gives are not always drawn. Like-named read-outs stand apart in the source and are kept apart here.

What was measured:
[1] = test system: Macrophoma kawatsukai; assay: Fungicidal (bactericidal) activity in vitro, PDA colony diameter; format: cell-based; details: 50 mg/kg
[2] = test system: cucumber fusarium wilt; assay: as above; format: cell-based; details: 50 mg/kg
[3] = test system: armyworms; format: in vivo; details: concentration 600 mg/kg
[4] = test system: Fusarium graminearumt; assay: microbe, parasite or virus in culture; format: cell-based; details: 50 mg/kg
[5] = test system: tobacco mosaic virus (TMV); assay: Anti-TMV in vivo inactivation; set-up: species or system tobacco mosaic virus (host Nicotiana tabacum L.cv.Xanthi NN)
[6] = test system: tobacco mosaic virus (TMV); assay: Anti-TMV in vivo protective effect; set-up: species or system tobacco mosaic virus (host Nicotiana tabacum L.cv.Xanthi NN)
[7] = test system: Bipolaria maydis; assay: organism not typed; format: cell-based; details: 50 mg/kg
[8] = test system: Rhizoctonia cereali; assay: Fungicidal (bactericidal) activity in vitro, PDA colony diameter; format: cell-based; details: 50 mg/kg
[9] = test system: Alternaria solani; assay: as above; format: cell-based; details: 50 mg/kg
[10] = test system: potato late blight; assay: microbe, parasite or virus in culture; format: cell-based
[11] = test system: mosquito larvae; assay: whole plant or invertebrate
Experimental: Experimental method of mosquito larvae: culex pipiens pallens, a normal colony raised indoors. Weigh about 5 mg of the compound for test, put it in a penicillin vial, add 5 mL of acetone (or an appropriate solvent), and shake and dissolve it to obtain a 1000 ppm mother solution. Pipette 0.5 mL of the mother solution, add it to a 100 mL beaker filled with 89.9 mL of water, select 10 mosquito larvae at the beginning of the fourth instar, and pour them to a beaker together with 10 mL of feeding solution. The concentration of the drug solution is 5 ppm. […] Use an aqueous solution containing 0.5 mL of test solvent as a blank.

[12] = test system: corn borers
[13] = test system: tobacco mosaic virus (TMV); assay: Anti-TMV in vitro effect (half-leaf soaking); format: cell-based, tobacco mosaic virus (host Nicotiana tabacum L.cv.Xanthi NN)
[14] = test system: Rhizoctonia solani; assay: Fungicidal (bactericidal) activity in vitro, PDA colony diameter; format: cell-based; details: 50 mg/kg
[15] = test system: tobacco mosaic virus (TMV); assay: Anti-TMV in vivo therapeutic effect; set-up: species or system tobacco mosaic virus (host Nicotiana tabacum L.cv.Xanthi NN)
[16] = test system: Phytophthora capsici; assay: Fungicidal (bactericidal) activity in vitro, PDA colony diameter; format: cell-based; details: 50 mg/kg
[17] = test system: cotton bollworms; assay: whole plant or invertebrate
Experimental: Experimental method of cotton bollworms: feed and drug mixing method: measure 3 mL of prepared solution and add it to about 27 g of newly prepared feed, thereby obtaining needed concentration through dilution by 10 times.

[18] = test system: Botrytis cinerea; assay: Fungicidal (bactericidal) activity in vitro, PDA colony diameter; format: cell-based; details: 50 mg/kg
[19] = test system: Colletotrichum orbiculare; assay: as above; format: cell-based; details: 50 mg/kg
[20] = test system: Fusarium fujikuroi; assay: as above; format: cell-based; details: 50 mg/kg
[21] = test system: Sclerotinia scleotiorum; assay: as above; format: cell-based; details: 50 mg/kg
[22] = test system: Cercospora arachidicola; assay: as above; format: cell-based; details: 50 mg/kg

Structure (SMILES) | Bactericidal activity (%) Macrophoma kawatsukai [1] [%] | Bactericidal activity (%) Cucumber fusarium wilt [2] [%] | Armyworm Mortality (%) [3] [%] | Bactericidal activity (%) Fusarium graminearumt [4] [%] | Relative inhibition rate (%) In vivo inactivation ([5]; treatment dose 100 μg/mL) [%] | Relative inhibition rate (%) In vivo inactivation ([5]; treatment dose 500 μg/mL) [%] | Relative inhibition rate (%) In vivo protection ([6]; treatment dose 100 μg/mL) [%] | Relative inhibition rate (%) In vivo protection ([6]; treatment dose 500 μg/mL) [%] | Bactericidal activity (%) Bipolaria maydis [7] [%] | Bactericidal activity (%) Rhizoctonia cereali [8] [%] | Bactericidal activity (%) Alternaria solani [9] [%] | Relative inhibition rate (%) In vitro activity ([13]; treatment dose 100 μg/mL) [%] | Relative inhibition rate (%) In vitro activity ([13]; treatment dose 500 μg/mL) [%] | Bactericidal activity (%) Rhizoctonia solani [14] [%] | Relative inhibition rate (%) In vivo therapy ([15]; treatment dose 100 μg/mL) [%] | Relative inhibition rate (%) In vivo therapy ([15]; treatment dose 500 μg/mL) [%] | Bactericidal activity (%) Phytophthora capsici [16] [%] | Bactericidal activity (%) Botrytis cinerea [18] [%] | Bactericidal activity (%) Colletotrichum orbiculare [19] [%] | Bactericidal activity (%) Fusarium fujikuroi [20] [%] | further results
CCOC(=O)c1cc2c([nH]c3ccccc32)c(C)n1 [Ia-10, 1-methyl-pyridino [3,4-b] indol-3-ethyl formate] | 52.9 | 23.8 | 30 | 71.4 | 0 | 26.3 | 0 | 23.7 | 36.8 | 78.1 | 61.1 | 0 | 33.3 | 39.3 | 0 | 28.8 | 51.5 | 13.6 | 47.6 | 35.7 | Bactericidal activity (%) potato late blight ([10]; 50 mg/kg): 35.0%; Mosquito larvae Mortality (%) ([11]; concentration 10 mg/kg, 24 h): 65%; Corn borer Mortality (%) ([12]; concentration 600 mg/kg): 30%; Cotton bollworm Mortality (%) ([17]; concentration 600 mg/kg): 40%; Bactericidal activity (%) Sclerotinia scleotiorum [21]: 68.0%; Bactericidal activity (%) Cercospora arachidicola [22]: 35.7%
Cc1nc(/C=C/C(=O)O)cc2c1[nH]c1ccccc12 [Ia-14, (E)-3-(1-methyl-pyridino [3,4-b]indol-3)-acrylic acid] | 47.6 | 23.1 | 25 | 14.3 | 0 | 18.4 | 0 | 28.4 | 22.7 | 63.2 | 10.5 | 0 | 25.8 | 39.5 | 0 | 21.5 | 18.8 | 12.1 | 25.0 | 28.6 | Bactericidal activity (%) potato late blight [10]: 22.7%; Mosquito larvae Mortality (%) ([11]; concentration 10 mg/kg, 24 h): 35%; Corn borer Mortality (%) ([12]; concentration 600 mg/kg): 20%; Cotton bollworm Mortality (%) ([17]; concentration 600 mg/kg): 30%; Bactericidal activity (%) Sclerotinia scleotiorum [21]: 9.8%; Bactericidal activity (%) Cercospora arachidicola [22]: 84.6%
O=C(O)/C=C/c1cc2c([nH]c3ccccc32)c(-c2cccs2)n1 [Ia-15, (E)-3-(1-(thiophene-2)-pyridino [3,4-b]indol-3)-acrylic acid] | 58.8 | 33.3 | 15 | 78.6 | 13.5 | 39.6 | 10.2 | 35.1 | 73.7 | 81.3 | 22.2 | 0 | 40.2 | 17.9 | 10 | 36.2 | 66.7 | 68.2 | 66.7 | 64.3 | Bactericidal activity (%) potato late blight [10]: 55.0%; Mosquito larvae Mortality (%) ([11]; concentration 10 mg/kg, 24 h): 35%; Corn borer Mortality (%) ([12]; concentration 600 mg/kg): 5%; Cotton bollworm Mortality (%) ([17]; concentration 600 mg/kg): 15%; Bactericidal activity (%) Sclerotinia scleotiorum [21]: 76.0%; Bactericidal activity (%) Cercospora arachidicola [22]: 21.4%
O=C(O)/C=C/c1cc2c([nH]c3ccccc32)c(-c2cccnc2)n1 [Ia-16, (E)-3-(1-(pyridine-3)-pyridino [3,4-b]indol-3)-acrylic acid] | 23.5 | 4.8 | 10 | 42.9 | 0 | 26.5 | 0 | 21.3 | 15.8 | 53.1 | 22.2 | 0 | 17.8 | 0.0 | 0 | 20.2 | 9.1 | 4.6 | 23.8 | 28.6 | Bactericidal activity (%) potato late blight [10]: 15.0%; Mosquito larvae Mortality (%) ([11]; in vivo): 20%; Corn borer Mortality (%) ([12]; in vivo): 10%; Cotton bollworm Mortality (%) ([17]; in vivo): 5%; Bactericidal activity (%) Sclerotinia scleotiorum [21]: 76.0%; Bactericidal activity (%) Cercospora arachidicola [22]: 0.0%
